pEC50: −log10 of the molar value.
How the values were obtained:
[1] = cited from earlier work; for Abs (absorption): first figure of Abs/em; for em (emission): second figure of Abs/em
[2] = target: plasmid DNA; experiment: Relaxation assay: binding of GadoTO to plasmid DNA monitored by relaxometry (T1); settings: GadoTO 1 mM, plasmid DNA 0.025 to 0.3 ug/uL, Bruker minispec; 95% confidence interval 0.078-0.101; read-out: half-maximal concentration (EC50) from T1 values
Procedure: Experimental Details of the Relaxation Assay: Gadolinium thiazole orange (GadoTO) at 1 mM was employed with increasing concentrations of plasmid DNA (DNA 0.025 to 0.3 ug/uL). Relaxation times were measured on a Bruker minispec at […].
(§1) Results from the Relaxation and Fluorescence Assays: The design of vital fluorochrome conjugates must preserve the essential features of the vital fluorochrome upon which it is based. The verification that a putative vital fluorochrome conjugates (VF-Linker-Reporter) has the properties of the VF upon which its was based is shown in FIGS. 2A, 2B, 3 and 4 which show the results with the vital fluorochrome conjugates known as GadoTO. Since the reporter group of GadoTO is a paramagnetic gadolinium chelate, binding can be ascertained by changes in the water relaxation rates. […] Binding of small GadoTO to the larger DNA slows the molecular motion, increasing the R1 relaxivity and decreasing the solution T1.

[3] = test system: Jurkat cells; experiment: In vitro T1 weighted MRI / FRI of packed cell phantoms of camptothecin treated Jurkat cells; type: cell-based; settings: for uptake by CPT treated cells by MRI: T1 weighted MRI, FRI and relaxometry, CPT treated versus non-CPT treated Jurkat cells
Procedure: The interaction of GadoTO with necrotic cells is shown schematically in FIG. 5A. GadoTO is excluded by vital cells. Prolonged ischemia or a 48 hour exposure to CPT induces necrosis, which causes GadoTO to enter cells and intercalate with double stranded nuclear DNA. […] Effects on cellular T1 were confirmed by relaxometry studies using cell suspensions.

[4] = target: DNA; experiment: Fluorescence assay: binding of GadoTO to DNA monitored by fluorescence; settings: GadoTO 2.35 uM, increasing DNA concentrations, emission 510-700 nm; 95% confidence interval 0.149-0.214; read-out: half-maximal concentration (EC50) from fluorescence values
Procedure: Experimental Details of the Fluorescence Assay: GadoTO at 2.35 uM was employed with increasing concentrations of DNA. Absorption spectra were measured on a Varian Cary 50 Bio UV-Visible spectrophotometer. The absorbance at 511 nm was measured. Fluorescence emission spectra were recorded on a Varian Cary Eclipse fluorescence spectrophometer. Fluorescence intensities were measured between 510 and 700 nm and corrected, when necessary, for matched absorbances at 511 nm. Fluorescence intensities were plotted versus DNA concentrations.
as §1

[5] = test system: Jurkat T cells; experiment: Single channel FACS, GadoTO versus propidium iodide; type: cell-based
Procedure: Experimental Details for the Dual Wavelength FACS and Single Channel FACS: Cell culture: All experiments described used Jurkat T cells (Clone E6-1, ATCC #TIB-152). Cells were grown in RPMI 1640 medium (ThermoFisher Scientific, Hampton, N.H.) with 10% fetal bovine serum (Valley Biomedical, Winchester, Va.), 1% L-Glutamine (Mediatech, Manassas, Va.), 1% Penycillin-Streptomycin (Mediatech, Manassas, Va.). Media was changed every two or three days. Cells were maintained at 37° C., 5% CO2. Flow cytometry experiments: Cells were treated with camptothecin (CPT, 24 hrs, 10 μM). After removal of the medium, cells were resuspended into 100 μL of binding buffer (10 mM HEPES, 140 mM NaCl, 2.5 mM CaCl2, 1% FBS). Cells were stained at 37° C. for 15 min with 1 μL Annexin-APC (Invitrogen) and 1 μL propidium iodide (BD Pharmingen) or 1 μL of GadoTO (0.1 mM stock solution in binding buffer). Cells were diluted with 200 μL of binding buffer and analyzed by flow cytometry (FACSCalibur, Becton Dickinson). Fluorescence from the APC fluorochrome was measured in FL4, PI in FL3, and GadoTO in FL1. […]

[6] = test system: infarcted myocardium; experiment: MR imaging of post myocardial infarction phases (age of infarction); type: in vivo; settings: mouse
Excerpt: An additional feature of the invention is an imaging method to determine the age of a myocardial infarction (MI), i.e., the time since the occlusion began. Patients can present with symptoms of variable intensity and duration that may or may indicate an infarction. Current techniques can define regions of non-functional myocardium, but cannot define the time of infarction. With developing (“young”) infarctions, treatments to limit or reverse the affected area are indicated, while with “old” infarctions such treatments are futile. In this method a vital fluorochrome conjugate is injected intravenously and MRI or PET or SPECT are used to measure the vital fluorochrome conjugates uptake in an infracted area.
FIGS. 6A and 6B show an example of a beating mouse heart injected with GadoTO imaged during phase 2 (18 hours) (FIG. 6A) and phase 4 (8 days) (FIG. 6B) of the post MI reaction phases. […] GadoTO can thus be used to specifically image acutely necrotic myocardium/tissue.

[7] = test system: necrotic cardiomyocytes of infarcted myocardium; experiment: In vivo MR imaging of ischemia induced necrosis, left coronary artery ligation; settings: mouse
Procedure: For in vivo MR studies, we employed a model of prolonged ischemia, obtained when the left coronary artery of a beating mouse heart was ligated for 18 hours. The ligation and procedure is similar to our previously described method (Sosnovik, D. E. et al., Magn. Reson. Med., 54:718-24, 2005) except the duration is for 18 hours. […] GadoTO was injected (18 hours post ligation) and imaged (21 h). […] Gd-DTPA washed in and out of damaged myocardium within 1 hour.

[8] = test system: Jurkat T cells; experiment: Dual wavelength FACS with Annexin V-APC, camptothecin-treated Jurkat T cells; type: cell-based
Procedure: Experimental Details for the Dual Wavelength FACS and Single Channel FACS: Cell culture: All experiments described used Jurkat T cells (Clone E6-1, ATCC #TIB-152). Cells were grown in RPMI 1640 medium (ThermoFisher Scientific, Hampton, N.H.) with 10% fetal bovine serum (Valley Biomedical, Winchester, Va.), 1% L-Glutamine (Mediatech, Manassas, Va.), 1% Penycillin-Streptomycin (Mediatech, Manassas, Va.). Media was changed every two or three days. Cells were maintained at 37° C., 5% CO2. Flow cytometry experiments: Cells were treated with camptothecin (CPT, 24 hrs, 10 μM). After removal of the medium, cells were resuspended into 100 μL of binding buffer (10 mM HEPES, 140 mM NaCl, 2.5 mM CaCl2, 1% FBS). Cells were stained at 37° C. for 15 min with 1 μL Annexin-APC (Invitrogen) and 1 μL propidium iodide (BD Pharmingen) or 1 μL of GadoTO (0.1 mM stock solution in binding buffer). Cells were diluted with 200 μL of binding buffer and analyzed by flow cytometry (FACSCalibur, Becton Dickinson). Fluorescence from the APC fluorochrome was measured in FL4, PI in FL3, and GadoTO in FL1.
Results from Dual Wavelength FACS: The exclusion of GadoTO from healthy cells and uptake by necrotic cells by FACS is shown in FIG. 3. […] GadoTO binding necrotic cells were of two intensities (Hi and Lo), indicating two subpopulations of necrotic cells.

CN1/C(=C/C=C/C2C=CN(CCC[N+](C)(C)C)c3ccccc32)Oc2ccccc21 (centres unmarked) [YO-PRO 3]
Abs (absorption) [1]: 612 nm | em (emission) [1]: 631 nm

Gadolinium thiazole orange [GadoTO]
pEC50 [2]: 4.05 | uptake by CPT treated cells by MRI [3]: brighter than non-CPT treated cells | nuclear cell fluorescence emission ([3]; after intercalation with double stranded nuclear DNA of necrotic cells): 533 nm | pEC50 [4]: 3.75 | binding to cells, single channel FACS ([5]; Jurkat cells with CPT (+CPT), PI compared with GadoTO): two peaks (Lo and Hi) of highly fluorescent cells were seen | binding to cells, single channel FACS ([5]; Jurkat cells without CPT (-CPT)): cells failed to bind GadoTO | uptake in infarcted myocardium ([6]; phase 2 (18 hours) post MI): Profound uptake | uptake in infarcted myocardium ([6]; phase 4, injected 8 days after myocardial infarction): no uptake | infarct on GRE image ([7]; injected 18 hours post ligation, imaged 21 h, gradient echo): barely visible infarct | infarct on IR GRE image ([7]; injected 18 hours post ligation, imaged 21 h, inversion recovery GRE): well-defined, bright infarct | binding to cells, dual wavelength FACS ([8]; Jurkat T cells after camptothecin (+CPT, 24 hrs, 10 μM), necrotic cells): cells bound both probes | binding to cells, dual wavelength FACS ([8]; Jurkat T cells before camptothecin (-CPT), viable cells): failed to bind

O=C([O-])CN(CCN(CC(=O)[O-])CC(=O)O)CCN(CC(=O)[O-])CC(=O)O.[Gd+3] [Gd-DTPA]
uptake by CPT treated cells by MRI [3]: did not induce the uptake | time to wash in and out of damaged myocardium ([7]; damaged myocardium): ≤ 1 h

CN(C)CCCN1C=C\C(=C/C=C/C=C/c2sc3ccccc3[n+]2C)c2ccccc21.I.[I-] [TO-PRO 5]
Abs (absorption) [1]: 745 nm | em (emission) [1]: 770 nm

CN1/C(=C/c2cc[n+](CCC[N+](C)(C)C)c3ccccc23)Sc2ccccc21 [TO-PRO 1]
Abs (absorption) [1]: 515 nm | em (emission) [1]: 531 nm

C[n+]1c(/C=C/C=C2\C=CN(CCC[N+](C)(C)C)c3ccccc32)sc2ccccc21 [TO-PRO 3]
Abs (absorption) [1]: 612 nm | em (emission) [1]: 631 nm

CCCN(CCCN(C)C)C1=C/C(=C\c2sc3ccccc3[n+]2C)c2ccccc2N1c1ccccc1 [Sybr Green]
Abs (absorption) [1]: 490 nm | em (emission) [1]: 520 nm

CN1/C(=C/c2cc[n+](CCC[N+](C)(C)C)c3ccccc23)Oc2ccccc21 [YO-PRO]
Abs (absorption) [1]: 491 nm | em (emission) [1]: 509 nm

Reference: patent US20120121509A1, “VITAL FLUOROCHROME CONJUGATES AND METHODS OF USE” (THE GENERAL HOSPITAL CORPORATION, priority 2009, published 2012)
